Tests used:
Assay type in all cases: functional, organism-based
Oryctolagus cuniculus [1] = species on record: Oryctolagus cuniculus; test: (§1) Total cholesterol-fed rabbit
Oryctolagus cuniculus [2] = species on record: Oryctolagus cuniculus; test: as §1; remark: listed apart in the source
Oryctolagus cuniculus [3] = species on record: Oryctolagus cuniculus; test: (§2) HDL-cholesterol-fed rabbit
Oryctolagus cuniculus [4] = species on record: Oryctolagus cuniculus; test: Triglyceride after 8 weeks of cholesterol-fed rabbit
Oryctolagus cuniculus [5] = species on record: Oryctolagus cuniculus; test: Triglyceride after 0 week of cholesterol-fed rabbit
Oryctolagus cuniculus [6] = species on record: Oryctolagus cuniculus; test: as §2; remark: listed apart in the source

**Q.** `COC(=O)C(Cc1c[nH]c2ccccc12)NC(=O)CCc1ccc(O)c(O)c1` (configuration not stated) was tested. Which Plasma lipids (Oryctolagus cuniculus [1]) did it give?
**A.** The Plasma lipids was 1070 mg/dL.

**Q.** And the Plasma lipids (Oryctolagus cuniculus [2])?
**A.** Its Plasma lipids is 50 mg/dL.

**Q.** What about the Plasma lipids (Oryctolagus cuniculus [3]) of the same compound?
**A.** Its Plasma lipids is 32 mg/dL.

**Q.** And the Plasma lipids (Oryctolagus cuniculus [4])?
**A.** The Plasma lipids was 104 mg/dL.

**Q.** And the Plasma lipids (Oryctolagus cuniculus [5])?
**A.** Its Plasma lipids is 43 mg/dL.

**Q.** And the Plasma lipids (Oryctolagus cuniculus [6])?
**A.** Its Plasma lipids is 98 mg/dL.

**Q.** Which Plasma lipids (Oryctolagus cuniculus [1]) does the source give for `COC(=O)C(C)NC(=O)CCc1ccc(O)c(O)c1` (configuration not stated) here?
**A.** Its Plasma lipids is 1080 mg/dL.

**Q.** And the Plasma lipids (Oryctolagus cuniculus [2])?
**A.** Its Plasma lipids is 53 mg/dL.

**Q.** And the Plasma lipids (Oryctolagus cuniculus [3])?
**A.** Its Plasma lipids is 37 mg/dL.

**Q.** And the Plasma lipids (Oryctolagus cuniculus [4])?
**A.** Its Plasma lipids is 116 mg/dL.

**Q.** What about the Plasma lipids (Oryctolagus cuniculus [5]) of the same compound?
**A.** Its Plasma lipids is 53 mg/dL.

**Q.** What about the Plasma lipids (Oryctolagus cuniculus [6]) of the same compound?
**A.** Its Plasma lipids is 81 mg/dL.

Source: ChEMBL document CHEMBL1136154, “Anti-atherogenic effects of 3,4-Dihydroxy hydrocinnamides” (Bioorg Med Chem Lett, 2003)
